{"source": "patent US20230248626A1", "about": "“Compositions Comprising (Bio)-Alkanediols” (Symrise AG, priority 0001, published 2023)", "assay_type_in_all_cases": "cell-based", "key": {"Aspergillus brasiliensis": {"system": "Aspergillus brasiliensis", "assay": "MIC and Kull synergy index of 1,2-/2,3-alkanediol mixtures", "conditions": "single 1,2-alkanediol, read-out: MIC Component A"}, "Candida albicans (CA)": {"system": "Candida albicans (CA)", "assay": "Preservation efficacy test (PET), European Pharmacopoeia 5.1.3", "summary_of_the_method": "(§1)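 Preparations challenged with prescribed inoculums per European Pharmacopoeia 5.1.3, counting microorganisms after the prescribed time. Adequate preservation means a significant fall or no increase in counts.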"}, "[1]": {"system": "Staphylococcus aureus (SA)", "assay": "Preservation efficacy test (PET), European Pharmacopoeia 5.1.3", "summary_of_the_method": "as §1"}, "[2]": {"system": "Aspergillus brasiliensis (AB)", "assay": "Preservation efficacy test (PET), European Pharmacopoeia 5.1.3", "summary_of_the_method": "as §1"}, "[3]": {"system": "Pseudomonas aeruginosa (PA)", "assay": "Preservation efficacy test (PET), European Pharmacopoeia 5.1.3", "summary_of_the_method": "as §1"}, "Escherichia coli (EC)": {"system": "Escherichia coli (EC)", "assay": "Preservation efficacy test (PET), European Pharmacopoeia 5.1.3", "summary_of_the_method": "as §1"}, "Staphylococcus aureus": {"system": "Staphylococcus aureus", "assay": "MIC test (growth inhibition, 96 well plates, OD)", "conditions": "read-out: Minimum Inhibitory Concentration (MIC)"}, "Propionibacterium acnes": {"system": "Propionibacterium acnes", "assay": "MIC test (growth inhibition, 96 well plates, OD)", "conditions": "Cutibacterium acnes; read-out: Minimum Inhibitory Concentration (MIC)"}, "Escherichia coli": {"system": "Escherichia coli", "assay": "MIC test (growth inhibition, 96 well plates, OD)", "conditions": "read-out: Minimum Inhibitory Concentration (MIC)"}, "Corynebacterium jeikeium": {"system": "Corynebacterium jeikeium", "assay": "MIC test (growth inhibition, 96 well plates, OD)", "conditions": "read-out: Minimum Inhibitory Concentration (MIC)"}, "Staphylococcus hominis": {"system": "Staphylococcus hominis", "assay": "MIC test (growth inhibition, 96 well plates, OD)", "conditions": "read-out: Minimum Inhibitory Concentration (MIC)"}, "Candida albicans": {"system": "Candida albicans", "assay": "MIC test (growth inhibition, 96 well plates, OD)", "conditions": "read-out: Minimum Inhibitory Concentration (MIC)"}}, "data": [{"compound": "CCCCCC(O)CO", "note": "(stereo not shown) [1,2-heptanediol]", "values": [{"measurement": "MIC", "setting": "Aspergillus brasiliensis", "value": 5000, "unit": "µg/mL"}, {"measurement": "number of microorganisms after 2 days", "setting": "Candida albicans (CA); 0.1% in shampoo", "value": "220,000"}, {"measurement": "number of microorganisms after 7 days", "setting": "Candida albicans (CA); 0.1% in shampoo", "value": "62,000"}, {"measurement": "number of microorganisms after 14 days", "setting": "Candida albicans (CA); 0.1% in shampoo", "value": "8,100"}, {"measurement": "number of microorganisms after 28 days", "setting": "Candida albicans (CA); 0.1% in shampoo", "value": 1}, {"measurement": "number of microorganisms after 2 days", "setting": "Candida albicans (CA); 0.2% in o/w emulsion", "value": "1,300,000"}, {"measurement": "number of microorganisms after 7 days", "setting": "Candida albicans (CA); 0.2% in o/w emulsion", "value": "1,600,000"}, {"measurement": "number of microorganisms after 14 days", "setting": "Candida albicans (CA); 0.2% in o/w emulsion", "value": "1,200,000"}, {"measurement": "number of microorganisms after 28 days", "setting": "Candida albicans (CA); 0.2% in o/w emulsion", "value": "620,000"}, {"measurement": "number of microorganisms after 2 days", "setting": "Candida albicans (CA); 0.4% in o/w emulsion", "value": "71,000"}, {"measurement": "number of microorganisms after 7 days", "setting": "Candida albicans (CA); 0.4% in o/w emulsion", "value": "2,800"}, {"measurement": "number of microorganisms after 14 days", "setting": "Candida albicans (CA); 0.4% in o/w emulsion", "value": 1}, {"measurement": "number of microorganisms after 28 days", "setting": "Candida albicans (CA); 0.4% in o/w emulsion", "value": 1}, {"measurement": "number of microorganisms after 2 days", "setting": "[1]; 0.1% in shampoo", "value": 10}, {"measurement": "number of microorganisms after 7 days", "setting": "[1]; 0.1% in shampoo", "value": 10}, {"measurement": "number of microorganisms after 14 days", "setting": "[1]; 0.1% in shampoo", "value": 1}, {"measurement": "number of microorganisms after 28 days", "setting": "[1]; 0.1% in shampoo", "value": 1}, {"measurement": "number of microorganisms after 2 days", "setting": "[1]; 0.2% in o/w emulsion", "value": "95,000"}, {"measurement": "number of microorganisms after 7 days", "setting": "[1]; 0.2% in o/w emulsion", "value": 1}, {"measurement": "number of microorganisms after 14 days", "setting": "[1]; 0.2% in o/w emulsion", "value": 1}, {"measurement": "number of microorganisms after 28 days", "setting": "[1]; 0.2% in o/w emulsion", "value": 1}, {"measurement": "number of microorganisms after 2 days", "setting": "[1]; 0.4% in o/w emulsion", "value": "15,000"}, {"measurement": "number of microorganisms after 7 days", "setting": "[1]; 0.4% in o/w emulsion", "value": "2,600"}, {"measurement": "number of microorganisms after 14 days", "setting": "[1]; 0.4% in o/w emulsion", "value": 1}, {"measurement": "number of microorganisms after 28 days", "setting": "[1]; 0.4% in o/w emulsion", "value": 1}, {"measurement": "number of microorganisms after 2 days", "setting": "[2]; 0.1% in shampoo", "value": "240,000"}, {"measurement": "number of microorganisms after 7 days", "setting": "[2]; 0.1% in shampoo", "value": "220,000"}, {"measurement": "number of microorganisms after 14 days", "setting": "[2]; 0.1% in shampoo", "value": "150,000"}, {"measurement": "number of microorganisms after 28 days", "setting": "[2]; 0.1% in shampoo", "value": "19,000"}, {"measurement": "number of microorganisms after 2 days", "setting": "[2]; 0.2% in o/w emulsion", "value": "2,200,000"}, {"measurement": "number of microorganisms after 7 days", "setting": "[2]; 0.2% in o/w emulsion", "value": "2,000,000"}, {"measurement": "number of microorganisms after 14 days", "setting": "[2]; 0.2% in o/w emulsion", "value": "2,500,000"}, {"measurement": "number of microorganisms after 28 days", "setting": "[2]; 0.2% in o/w emulsion", "value": "2,100,000"}, {"measurement": "number of microorganisms after 2 days", "setting": "[2]; 0.4% in o/w emulsion", "value": "1,000,000"}, {"measurement": "number of microorganisms after 7 days", "setting": "[2]; 0.4% in o/w emulsion", "value": "180,000"}, {"measurement": "number of microorganisms after 14 days", "setting": "[2]; 0.4% in o/w emulsion", "value": "150,000"}, {"measurement": "number of microorganisms after 28 days", "setting": "[2]; 0.4% in o/w emulsion", "value": 1}, {"measurement": "number of microorganisms after 2 days", "setting": "[3]; 0.1% in shampoo", "value": "2,500"}, {"measurement": "number of microorganisms after 7 days", "setting": "[3]; 0.1% in shampoo", "value": 10}, {"measurement": "number of microorganisms after 14 days", "setting": "[3]; 0.1% in shampoo", "value": 1}, {"measurement": "number of microorganisms after 28 days", "setting": "[3]; 0.1% in shampoo", "value": 1}, {"measurement": "number of microorganisms after 2 days", "setting": "[3]; 0.2% in o/w emulsion", "value": 1}, {"measurement": "number of microorganisms after 7 days", "setting": "[3]; 0.2% in o/w emulsion", "value": 1}, {"measurement": "number of microorganisms after 14 days", "setting": "[3]; 0.2% in o/w emulsion", "value": 1}, {"measurement": "number of microorganisms after 28 days", "setting": "[3]; 0.2% in o/w emulsion", "value": 1}, {"measurement": "number of microorganisms after 2 days", "setting": "[3]; 0.4% in o/w emulsion", "value": 1}, {"measurement": "number of microorganisms after 7 days", "setting": "[3]; 0.4% in o/w emulsion", "value": 1}, {"measurement": "number of microorganisms after 14 days", "setting": "[3]; 0.4% in o/w emulsion", "value": 1}, {"measurement": "number of microorganisms after 28 days", "setting": "[3]; 0.4% in o/w emulsion", "value": 1}, {"measurement": "number of microorganisms after 2 days", "setting": "Escherichia coli (EC); 0.1% in shampoo", "value": "2,100,000"}, {"measurement": "number of microorganisms after 7 days", "setting": "Escherichia coli (EC); 0.1% in shampoo", "value": "1,400,000"}, {"measurement": "number of microorganisms after 14 days", "setting": "Escherichia coli (EC); 0.1% in shampoo", "value": "200,000"}, {"measurement": "number of microorganisms after 28 days", "setting": "Escherichia coli (EC); 0.1% in shampoo", "value": 1}, {"measurement": "number of microorganisms after 2 days", "setting": "Escherichia coli (EC); 0.2% in o/w emulsion", "value": "38,000"}, {"measurement": "number of microorganisms after 7 days", "setting": "Escherichia coli (EC); 0.2% in o/w emulsion", "value": 73}, {"measurement": "number of microorganisms after 14 days", "setting": "Escherichia coli (EC); 0.2% in o/w emulsion", "value": 1}, {"measurement": "number of microorganisms after 28 days", "setting": "Escherichia coli (EC); 0.2% in o/w emulsion", "value": 1}, {"measurement": "number of microorganisms after 2 days", "setting": "Escherichia coli (EC); 0.4% in o/w emulsion", "value": "23,000"}, {"measurement": "number of microorganisms after 7 days", "setting": "Escherichia coli (EC); 0.4% in o/w emulsion", "value": "4,100"}, {"measurement": "number of microorganisms after 14 days", "setting": "Escherichia coli (EC); 0.4% in o/w emulsion", "value": 1}, {"measurement": "number of microorganisms after 28 days", "setting": "Escherichia coli (EC); 0.4% in o/w emulsion", "value": 1}, {"measurement": "MIC", "setting": "Staphylococcus aureus", "value": 10000, "unit": "µg/mL"}, {"measurement": "MIC", "setting": "Propionibacterium acnes", "value": "> 5000", "unit": "µg/mL"}, {"measurement": "MIC", "setting": "Escherichia coli", "value": 5000, "unit": "µg/mL"}, {"measurement": "MIC", "setting": "Corynebacterium jeikeium", "value": 7500, "unit": "µg/mL"}, {"measurement": "MIC", "setting": "Staphylococcus hominis", "value": 10000, "unit": "µg/mL"}, {"measurement": "MIC", "setting": "Candida albicans", "value": 5000, "unit": "µg/mL"}]}]}
